Experimental data reported in paper PMC6744473, “Structure of the thermo-sensitive TRP channel TRP1 from the alga Chlamydomonas reinhardtii” (Nature Communications, 2019).
Structures can show the parent of a compound that is named as a salt. Values belong to the compound of their own block, whether it stands above or below them.

Experiments:
crTRP1 [1] = target: T1, crTRP1 (Chlamydomonas reinhardtii, UniProt Q0Z852); experiment: planar lipid bilayer single-channel recording; type: biochemical; conditions: inhibitor 10 µM; 2.5 µM PIP2, 28 °C, +120 mV
T1 construct: HEK 293S GnTI-; purified in GDN or LMNG; homotetramer; from primer N-terminus MKVAPAPASGQP, C-terminus TAAAGH before the tag
T1 sequence (Q0Z852 1-901): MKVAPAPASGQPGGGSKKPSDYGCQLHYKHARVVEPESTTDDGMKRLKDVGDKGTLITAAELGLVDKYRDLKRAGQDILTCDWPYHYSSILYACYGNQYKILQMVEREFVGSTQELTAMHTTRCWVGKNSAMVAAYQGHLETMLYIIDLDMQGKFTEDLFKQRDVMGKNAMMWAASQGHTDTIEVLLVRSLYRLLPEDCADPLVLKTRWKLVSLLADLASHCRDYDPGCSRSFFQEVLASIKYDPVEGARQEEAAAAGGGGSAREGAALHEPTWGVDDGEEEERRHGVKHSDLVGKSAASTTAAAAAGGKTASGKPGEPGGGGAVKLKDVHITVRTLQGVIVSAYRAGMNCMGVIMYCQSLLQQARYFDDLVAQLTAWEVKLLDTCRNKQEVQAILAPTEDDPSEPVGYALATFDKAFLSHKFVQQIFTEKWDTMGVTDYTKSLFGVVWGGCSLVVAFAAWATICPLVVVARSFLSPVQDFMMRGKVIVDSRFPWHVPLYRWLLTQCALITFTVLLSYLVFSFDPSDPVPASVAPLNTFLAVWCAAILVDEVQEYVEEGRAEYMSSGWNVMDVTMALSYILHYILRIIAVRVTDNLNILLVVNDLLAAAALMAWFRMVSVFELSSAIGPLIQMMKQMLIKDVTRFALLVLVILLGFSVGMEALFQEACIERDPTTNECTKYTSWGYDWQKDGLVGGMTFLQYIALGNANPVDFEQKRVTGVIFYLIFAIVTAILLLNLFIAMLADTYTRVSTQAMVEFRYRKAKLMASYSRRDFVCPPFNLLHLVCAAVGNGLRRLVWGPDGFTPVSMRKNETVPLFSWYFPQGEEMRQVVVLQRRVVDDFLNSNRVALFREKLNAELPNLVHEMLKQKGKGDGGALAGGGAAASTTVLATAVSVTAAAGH

[2] = target: transient receptor potential (TRP) channel crTRP1 from Chlamydomonas reinhardtii (Chlamydomonas reinhardtii); experiment: cryo-EM structure; crTRP1 in detergent GDN (20 mM Tris pH 8.0, 150 mM NaCl, 0.01% GDN, 1 mM BME, 10 mM TCEP added); grids frozen at 4 °C; 3.53 Å; self-association: homotetramer
[3] = target: transient receptor potential (TRP) channel crTRP1 from Chlamydomonas reinhardtii (Chlamydomonas reinhardtii); experiment: cryo-EM structure; crTRP1 in MSP2N2 nanodiscs (POPC:POPE 3:1; 150 mM KCl, 20 mM Hepes pH 7.4, 1 µM CaCl2, 20 µM MgCl2, no detergent); grids frozen at 22 °C; 3.45 Å; C2 symmetry; self-association: homotetramer
crTRP1 [4] = target: T2, crTRP1 (Chlamydomonas reinhardtii, UniProt Q0Z852); experiment: planar lipid bilayer single-channel recording; type: biochemical; conditions: activator test; deletion borders not given, only primers; loss of activation
T2 construct: HEK 293S GnTI-; purified in GDN or LMNG; homotetramer; from primer N-terminus MKVAPAPASGQP, C-terminus TAAAGH before the tag

crTRP1 [5] = target: T1, crTRP1; experiment: planar lipid bilayer single-channel recording; type: biochemical; conditions: activator 2.5 µM; POPG/POPC/POPE bilayer, pH 7.2, 28 °C; diC8 form added to both compartments

Compound: CC(C)(C)c1ccc(NC(=O)N2CCN(c3ncccc3Cl)CC2)cc1 [BCTC, N-(4-tertiarybutylphenyl)-4-(3-cholorphyridin-2-yl)tetrahydropyrazine-1(2 H)-carbox-amide]
- Po change at 10 μM (crTRP1 [1]): BCTC) strongly suppressed crTRP1-mediated currents (Fig. 1g, h)

- stoichiometry N [2]: 4
- stoichiometry N [3]: 4
Compound: transient receptor potential (TRP) channel crTRP1 from Chlamydomonas reinhardtii (natural protein)

Compound: CCCCCCCC(=O)OC[C@H](COP(=O)(O)O[C@@H]1[C@H](O)[C@H](O)[C@@H](OP(=O)(O)O)[C@H](OP(=O)(O)O)[C@H]1O)OC(=O)CCCCCCC [PIP2, 1-(1,2R-dioctanoylphosphatidyl)inositol-4,5-bisphosphate, trisodium salt]
- planar lipid bilayer single-channel recording (crTRP1 [4]): deleting the entire pre-S1 elbow resulted in a greatly reduced Po and loss of activation by PIP2
- planar lipid bilayer single-channel recording (crTRP1 [5]): Addition of PIP2 readily evoked channel openings.
